Laboratory results reported in article PMC9873282, “Design, synthesis and evaluation of quinoline-O-carbamate derivatives as multifunctional agents for the treatment of Alzheimer’s disease” (Journal of Enzyme Inhibition and Medicinal Chemistry, 2023).

How the values were obtained:
ACh = ACh level in AlCl3-induced zebrafish AD model tissue; format: in vivo
Excerpt: . After the behavioural experiments, the 168hpf zebrafish were killed and ground, the tissue were used to test the AChE activity and ACh levels. […] .

IL-6 = IL-6 production in LPS-stimulated BV-2 cells (ELISA); format: cell-based; conditions: 1 µM and 2 µM; 1 µg/mL LPS 24 h
Description: Firstly, the cytotoxicity of compounds 3a, 3c, 3e, 3f, 3k, 3m and 3n were tested using CCK8 assay.
BV-2 cells (2 × 10^5 cells/well) were seeded in a 24-well cell culture plates. The cells were divided into blank control group, model group (1 µg/mL LPS), LPS + 2 µM compound group, LPS + 1 µM compound group. Each drug group was pre-treated with corresponding concentration of drug solution for 8 h. After 8 h, the culture medium was aspirated out. Except for the blank control group, which was added with DMEM medium, the other groups were stimulated with 1 µg/mL LPS for 24 h. Then cell supernatant was aspirated and centrifuged at 3000 rpm for 3 min. The content of NO in cell culture supernatant was determined by Griess method, and the levels of cytokines IL-6 and IL-1β in cell culture supernatant were determined by IL-6 ELISA kit and IL-1β ELISA kit, respectively.

## CCN(CC)C(=O)Oc1cccc2ncccc12 [Compound 3f, Quinolin-5-yl diethylcarbamate]
ACh; 0.08 µM
  ACh activity (level): 16.4 pmol/L
ACh; 0.16 µM
  ACh activity (level): 18.4 pmol/L
ACh; 0.32 µM
  ACh activity (level): 15.4 pmol/L
IL-6
  levels of IL-6 compared with model group: significantly decreased
